Like-named read-outs stand apart in the source and are kept apart here. Marks after values point to notes of the source that are not given here. Blank lines part the entries; values can stand above or below the compound they belong to. Where no end group is shown, it is not given here.
What was measured:
[1] = Effect of different dietary components on iron retention; type: in vitro ADME
Method: Then, the pH was adjusted to 2.0, and oxalic acid solution (1 %, w/v) was added. Gastrointestinal digestion simulation was then performed under the conditions described in 2.9.2. After the reaction was complete, the enzyme was inactivated, and the supernatant was collected after centrifugation. To assess the effects of phytate and dietary fiber on iron absorption, 1 % phytate and 8 % dietary fiber were added to the sample solution, and the digestion and measurement steps were repeated. By comparing changes in iron retention under different treatment conditions, the impacts of phytate and dietary fiber on the stability of […] chelate were analyzed. For calculations of iron retention rates, refer to Section 2.9.1.

[2] = Iron chelating rate (alcohol precipitation method); type: binding; details: synthesized peptide 1 mg/mL, pH 5 sodium acetate buffer, 1 mL + 2 mL FeCl2•4H2O 1.5 mM, 37 °C, 30 min, means ± SEM, three independent experiments
Method: The detection of iron chelation activity was performed using the method described by [Lin et al. (2021)]. The peptide solution was prepared using sodium acetate buffer. Subsequently, 1 mL of the peptide solution (1 mg/mL, pH 5) was mixed with 2 mL of FeCl₂•4H₂O (1.5 mM) and reacted at 37 °C for 30 min. Then, the alcohol precipitation method was used to determine the chelation rate of ferrous ions:(1) Iron chelating rate%=A−A1/A×100% where: A is the total amount of ions added; A1 is the content of free ions in the supernatant.
The peptides identified by mass spectrometry were synthesized by China Qiangyao Co., Ltd. (Shanghai, China) using Fmoc-protected amino acid solid-phase peptide synthesis, with the purity of these peptides evaluated at over 98 %. The ferrous ion chelating activity was verified using the method described in Section 2.3.

[3] = In vitro digestive simulation (iron retention); type: in vitro ADME
Method: In vitro simulated digestion of […] according to [Ding et al. (2025)]. […] To simulate the digestive processes of the stomach and intestines separately, the pH values of the three iron supplements were adjusted to 2.0 and 7.6, respectively, and pepsin and trypsin (3 %, w/w) were added separately. The mixture was incubated in a water bath at 37 °C for 2 h. To simulate the digestive processes of the gastrointestinal tract, the three iron supplements were subjected to simulated gastric digestion followed by intestinal digestion. The retention rates of iron after gastric digestion, intestinal digestion, and simulated gastrointestinal digestion were determined according to the method described in Section 2.9.1.

Zeta potential = type: physicochemical; details: 1 mg/mL solution, 25 °C, Zetasizer Nano ZSE
Method: (§1) An appropriate amount of […] and […]-Fe solutions with a concentration of 1 mg/mL were added to U-shaped cuvettes and equilibrated at a constant temperature of 25 °C for 5 s. The Zeta potential values and particle size distributions of the samples were determined using a Zetasizer Nano ZSE analyzer to evaluate their surface charge characteristics and solution stability.

[4] = Particle size distribution; type: physicochemical; details: 1 mg/mL solution, 25 °C, Zetasizer Nano ZSE
Method: as §1

Thermogravimetry (TG) = type: physicochemical; details: TAEDKKLIQ from 249 °C to 426 °C; TAEDKKLIQ-Fe from 638 °C to 686 °C; 10 °C/min
Method: 5 mg of […] and […]-Fe lyophilized powders were weighed, respectively, and the thermal stability analysis was carried out by […]. The sample chamber temperature range is set from 50 to 800 °C, with a heating rate of 10 °C/min. The thermogravimetric change curves of the samples were recorded synchronously.

[5] = Intermolecular force analysis with dissociation reagents; type: physicochemical; details: 2 mg/mL, read at 500 nm
Method: Referring to the study by [Sun et al. (2020)], the intermolecular forces of […]-Fe were analyzed using different dissociation reagents. The absorbance values at 500 nm of the sample solution (2 mg/mL) were measured at the initial moment of the reaction (0 min) and after 30 min, respectively. At 30 min of the reaction, 1 mol/L NaCl, 30 mmol/L DTT (dithiothreitol), 0.5 % SDS, and 6 mol/L urea were added sequentially, followed immediately by absorbance detection using an enzyme meter.

[6] = Temperature and pH stability test (iron retention); type: physicochemical; details: 1 mg/mL aqueous solution, 2 h
Method: The temperature stability of […]-Fe was determined using the method described by [Qu et al. (2022)]. The aqueous solution of […]-Fe (1 mg/mL) was incubated for 2 h at a temperature gradient of 30–80 °C and a pH gradient of 2–9. […]-Fe was separated using the alcohol precipitation method to calculate the iron retention rate:(2) Iron retention%=A−A0/A×100% where A represents the total iron content added to the reaction (mmol/mL), A0 represents the iron ion content in the supernatant after the reaction (mmol/mL).

Caco-2 cells = assay: Caco-2 cell viability assay (MTT); type: cell-based; details: 24 h, 490 nm, means ± SEM
Method: Caco-2 cell viability assay was conducted on […]-Fe according to the method of [Wu et al. (2019)]. And lactoferrin was chosen as an experimental control. When the cell fusion rate was close to 80 %, the cells were dissociated and passaged using the trypsin-EDTA mixed digest. Cultivate the 23rd generation of cells in the logarithmic growth phase at 37 °C and 5 % CO₂ for 24 h. Then, a gradient concentration of […]-Fe and Ac-[…]-Fe was added to the wells of the experimental group, and all the samples were incubated for 24 h. After incubation, 20 μL of MTT reagent was added to each well. After 2 h of reaction, 150 μL of DMSO was added and agitated for 10 min. The absorbance values at 490 nm were measured to reflect cell activity levels. Cell relative activity (%) was calculated:(3) Relative cell viability%=As−Ab/Ac−Ab×100 where: As represents the absorbance value of the sample treatment, Ab represents the absorbance value without cells, and Ac represents the absorbance value without sample treatment.

Compound: O=C([O-])[C@H](O)[C@@H](O)[C@H](O)[C@H](O)CO.O=C([O-])[C@H](O)[C@@H](O)[C@H](O)[C@H](O)CO.[Fe+2] [ferrous gluconate, reference compound]
Soluble iron content in the presence of phytic acid, oxalic acid or dietary fiber alone (rank) ([1]; 1 % oxalic acid, 1 % phytate or 8 % dietary fiber, then simulated gastrointestinal digestion, 37 °C): lower

Compound: LSDLHAHKLR [Hemoglobin subunit alpha-A(84th–93th) peptide, synthesized]
Chelation rate (%) [2]: 87.07 ± 0.12^b %

Compound: QAWEKAASH [Hemoglobin subunit alpha-D(12th–20th) peptide, synthesized]
Chelation rate (%) [2]: 81.38 ± 0.27^c %

Compound: TAEDKKLIQ
Ferrous retention after transfer to simulated intestinal fluid digestion ([3]; pH 7.6, trypsin 3 % w/w, 37 °C, 2 h, after gastric phase): significant increase in ferrous retention

Zeta potential (Zeta potential): 41.8 mV | Particle size, peak of the distribution [4]: 295 nm | Weight loss, second stage (TG) (Thermogravimetry (TG)): 12.32% | Decrease in transmittance after DTT ([5]; 30 mmol/L DTT added at 30 min, disulfide bonds): 0.138 | Decrease in transmittance after SDS ([5]; 0.5 % SDS added at 30 min, hydrophobic forces): 0.103 | Decrease in transmittance after NaCl ([5]; 1 mol/L NaCl added at 30 min, electrostatic interactions): 0.20 | Decrease in transmittance after urea ([5]; 6 mol/L urea added at 30 min, hydrogen bonding): 0.09 | Ferrous ion retention at 30 °C to 40 °C ([6]; alcohol precipitation): no significant loss observed | Iron retention, pH 6-9 ([6]; pH range 6-9): above 88% | Overall retention of ferrous ions as the temperature continued to increase ([6]; temperature gradient 30-80 °C, above 40 °C): above 40% | Retention of soluble iron with phytic acid [1]: 76.73% | Soluble iron content in the presence of phytic acid, oxalic acid or dietary fiber alone (rank) [1]: highest level
Compound: TAEDKKLIQ-Fe
Iron retention in simulated digestion compared with the control iron supplements [3]: superior to that of ferrous sulfate and ferrous gluconate | Relative vitality of cells (%) (Caco-2 cells; Caco-2, 0.125 mg/mL): 98.06 ± 1.22% | Relative vitality of cells (%) (Caco-2 cells; Caco-2, 0.25 mg/mL): 97.72 ± 1.67% | Relative vitality of cells (%) (Caco-2 cells; Caco-2, 0.5 mg/mL): 97.53 ± 0.89% | Relative vitality of cells (%) (Caco-2 cells; Caco-2, 1 mg/mL): 97.21 ± 1.45%

Source: PMC12720113, “The binding mechanism of a novel ferrous ion chelating peptide from chicken blood hemoglobin and the bioavailability of the chelate” (Food Chemistry: X, 2025)
